For 21 compounds, IC50 results are on record in US9212182B2, “Bicyclic sulfonamide compounds as sodium channel inhibitors” (AMGEN INC., priority 2013, dated 2015).

Molecules are shown by their SMILES. pIC50: −log10 of the molar value. Like-named read-outs stand apart in the source and are kept apart here.

This experiment deals with Nav 1.7 (Homo sapiens (Human), UniProt Q15858). Nature of the experiment: in-vitro Nav 1.7 PX (IC50). The experiment is classed as cell-based.
Where [1] appears, read: in-vitro Nav 1.7 PX data (PatchXpress).

Sequence of Nav 1.7 (Q15858 whole entry): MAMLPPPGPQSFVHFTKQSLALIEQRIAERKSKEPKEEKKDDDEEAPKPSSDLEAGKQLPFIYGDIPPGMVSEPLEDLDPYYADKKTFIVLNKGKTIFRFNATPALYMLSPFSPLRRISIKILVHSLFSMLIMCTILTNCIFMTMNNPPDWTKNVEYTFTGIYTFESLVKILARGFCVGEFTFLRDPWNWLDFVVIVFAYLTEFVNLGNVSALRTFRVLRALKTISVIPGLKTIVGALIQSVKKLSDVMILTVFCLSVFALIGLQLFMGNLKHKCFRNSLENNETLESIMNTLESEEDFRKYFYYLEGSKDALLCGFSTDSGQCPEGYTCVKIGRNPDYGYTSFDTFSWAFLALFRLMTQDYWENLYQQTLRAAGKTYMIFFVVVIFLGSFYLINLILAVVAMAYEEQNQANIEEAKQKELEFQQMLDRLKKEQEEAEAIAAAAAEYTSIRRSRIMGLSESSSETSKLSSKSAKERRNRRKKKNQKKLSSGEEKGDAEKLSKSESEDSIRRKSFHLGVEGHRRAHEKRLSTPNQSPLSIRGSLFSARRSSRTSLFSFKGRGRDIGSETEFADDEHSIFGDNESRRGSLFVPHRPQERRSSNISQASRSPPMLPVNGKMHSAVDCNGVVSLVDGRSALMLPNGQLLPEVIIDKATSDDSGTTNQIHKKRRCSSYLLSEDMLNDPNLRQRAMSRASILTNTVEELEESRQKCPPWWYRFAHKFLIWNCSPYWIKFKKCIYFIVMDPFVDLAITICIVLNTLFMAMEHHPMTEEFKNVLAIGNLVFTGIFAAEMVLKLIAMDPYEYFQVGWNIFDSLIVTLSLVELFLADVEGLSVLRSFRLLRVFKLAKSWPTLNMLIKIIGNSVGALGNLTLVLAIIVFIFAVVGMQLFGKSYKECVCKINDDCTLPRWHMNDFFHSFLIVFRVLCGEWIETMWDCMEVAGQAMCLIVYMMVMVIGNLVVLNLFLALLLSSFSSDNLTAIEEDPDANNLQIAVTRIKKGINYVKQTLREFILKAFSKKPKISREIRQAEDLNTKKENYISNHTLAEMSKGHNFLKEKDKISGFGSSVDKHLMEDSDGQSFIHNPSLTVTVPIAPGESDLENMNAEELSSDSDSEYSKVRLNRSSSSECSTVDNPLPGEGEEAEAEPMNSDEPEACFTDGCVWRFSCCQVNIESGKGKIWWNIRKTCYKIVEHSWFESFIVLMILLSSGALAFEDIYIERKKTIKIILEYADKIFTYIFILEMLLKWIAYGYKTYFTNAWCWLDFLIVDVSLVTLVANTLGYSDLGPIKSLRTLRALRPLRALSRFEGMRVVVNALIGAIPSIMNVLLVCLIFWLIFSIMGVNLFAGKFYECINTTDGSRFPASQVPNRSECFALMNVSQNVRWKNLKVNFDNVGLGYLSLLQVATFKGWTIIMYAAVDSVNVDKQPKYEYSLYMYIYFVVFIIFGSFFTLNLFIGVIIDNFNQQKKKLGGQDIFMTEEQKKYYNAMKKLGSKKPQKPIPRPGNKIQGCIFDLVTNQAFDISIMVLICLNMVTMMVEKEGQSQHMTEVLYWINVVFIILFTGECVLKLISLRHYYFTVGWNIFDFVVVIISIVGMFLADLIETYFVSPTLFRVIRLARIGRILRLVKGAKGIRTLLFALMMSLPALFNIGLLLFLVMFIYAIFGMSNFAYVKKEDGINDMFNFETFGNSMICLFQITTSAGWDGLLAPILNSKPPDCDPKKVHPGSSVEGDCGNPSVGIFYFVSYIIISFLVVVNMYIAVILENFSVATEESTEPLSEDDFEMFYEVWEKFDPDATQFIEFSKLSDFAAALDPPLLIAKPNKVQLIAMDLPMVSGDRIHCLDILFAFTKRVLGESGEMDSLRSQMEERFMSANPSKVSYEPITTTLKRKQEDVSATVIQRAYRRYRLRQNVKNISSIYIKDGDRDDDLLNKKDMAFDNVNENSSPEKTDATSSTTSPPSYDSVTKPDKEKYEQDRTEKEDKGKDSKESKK

A word on the pIC50: it is −log10 of the IC50, conventionally taken in molar units. Read a high pIC50 as a low IC50. In turn, `COc1cc(-c2cnc(OC)c(Cl)c2)c(F)cc1-n1c(=O)ccc2cc(S(=O)(=O)Nc3ncco3)ccc21` (atropisomer, axis not shown; (P)) [Example 1158, (P)-1-(4-(5-chloro-6-methoxy-3-pyridinyl)-5-fluoro-2-methoxyphenyl)-N-1,3-oxazol-2-yl-2-oxo-1,2-dihydro-6-quinolinesulfonamide] had a pIC50 (in-vitro Nav 1.7 PX data, Table 4) of 7.05.
For the compound `COc1cc(-c2cccc(C)c2)c(F)cc1-n1c(=O)ccc2cc(S(=O)(=O)Nc3ccon3)ccc21` (atropisomer, axis not shown; (P)) [Example 522, (P)-1-(2-fluoro-5-methoxy-3′-methyl-4-biphenylyl)-N-3-isoxazolyl-2-oxo-1,2-dihydro-6-quinolinesulfonamide], where the note is “in-vitro PatchXpress (PX)”, the pIC50 was 8.05.
With `COc1ccc(C)c(-c2ccc(-n3c(=O)ccc4cc(S(=O)(=O)Nc5ccon5)ccc43)c(OC)c2)c1` [Example 1037, 1-(3,5′-dimethoxy-2′-methyl-4-biphenylyl)-N-3-isoxazolyl-2-oxo-1,2-dihydro-6-quinolinesulfonamide], the negative logarithm of the IC50 (pIC50) under setting [1] was 7.62.
In turn, `COc1cc(-c2cc(F)cc(C(F)(F)F)c2)c(F)cc1-n1c(=O)ccc2cc(S(=O)(=O)Nc3ccon3)ccc21` [Example 711, 1-(2,3′-difluoro-5-methoxy-5′-(trifluoromethyl)-4-biphenylyl)-N-3-isoxazolyl-2-oxo-1,2-dihydro-6-quinolinesulfonamide] showed a pIC50 (in-vitro Nav 1.7 PX data) of 8.05.
Regarding `COc1cc(-c2cc(F)cc(Cl)c2)ccc1-n1c(=O)ccc2cc(S(=O)(=O)Nc3ccon3)ccc21` (atropisomer, axis not shown; (P)) [Example 430, (P)-1-(3′-chloro-5′-fluoro-3-methoxy-4-biphenylyl)-N-3-isoxazolyl-2-oxo-1,2-dihydro-6-quinolinesulfonamide], the negative-log IC50 (pIC50) is 7.92.
In the case of `Cc1cc(-c2cc(OCC#N)c(-n3c(=O)ccc4cc(S(=O)(=O)Nc5ccon5)ccc43)cc2F)ccc1Cl` [Example 622, 1-(4′-chloro-5-(cyanomethoxy)-2-fluoro-3′-methyl-[1,1′-biphenyl]-4-yl)-N-(isoxazol-3-yl)-2-oxo-1,2-dihydroquinoline-6-sulfonamide], under setting [1], the negative logarithm of the IC50 (pIC50) is 6.51.
As for `COc1cc(-c2ccc(C)c(C)c2)ccc1-n1c(=O)ccc2cc(S(=O)(=O)Nc3ccon3)ccc21` [Example 812, N-3-isoxazolyl-1-(3-methoxy-3′,4′-dimethyl-4-biphenylyl)-2-oxo-1,2-dihydro-6-quinolinesulfonamide], for the setting “in-vitro Nav 1.7 PX data”, the pIC50 was 7.14.
`COc1ccc(-c2cccc(C(F)(F)F)c2)cc1-n1c(=O)ccc2cc(S(=O)(=O)Nc3ccon3)ccc21` (atropisomer, axis not shown; (M)) [Example 382, (M)-N-3-isoxazolyl-1-(4-methoxy-3′-(trifluoromethyl)-3-biphenylyl)-2-oxo-1,2-dihydro-6-quinolinesulfonamide]: the pIC50 is 5.51.
Same read-out and setting: to `COc1ccc(-c2cc(F)cnc2OC)cc1-n1c(=O)ccc2cc(S(=O)(=O)Nc3ccon3)ccc21` [Example 488, 1-(5-(5-fluoro-2-methoxy-3-pyridinyl)-2-methoxyphenyl)-N-3-isoxazolyl-2-oxo-1,2-dihydro-6-quinolinesulfonamide] belongs 6.52; to `O=c1ccc2cc(S(=O)(=O)Nc3ccon3)ccc2n1-c1ccc(C(F)(F)F)cc1-c1cn[nH]c1` [Example 347, M-1-(2-(1H-pyrazol-4-yl)-4-(trifluoromethyl)phenyl)-N-(isoxazol-3-yl)-2-oxo-1,2-dihydroquinoline-6-sulfonamide], 5.18.
`COc1cc(-c2cc(OC)c(-n3c(=O)ccc4cc(S(=O)(=O)Nc5ncccn5)ccc43)cc2F)ccc1F` [Example 1006, 1-(2,4′-difluoro-3′,5-dimethoxy-4-biphenylyl)-2-oxo-N-2-pyrimidinyl-1,2-dihydro-6-quinolinesulfonamide] had a pIC50 (in-vitro Nav 1.7 PX data) of 7.12.
On the same count and under the same terms, to `COc1cc(-c2ccc(Cl)c(C)c2)c(F)cc1-n1c(=O)ccc2cc(S(=O)(=O)Nc3nncs3)ccc21` [Example 1074, 1-(4′-chloro-2-fluoro-5-methoxy-3′-methyl-4-biphenylyl)-2-oxo-N-1,3,4-thiadiazol-2-yl-1,2-dihydro-6-quinolinesulfonamide] belongs 8.52; to `COc1ccc(-c2ccccc2Cl)cc1-n1c(=O)ccc2cc(S(=O)(=O)Nc3ccon3)ccc21` [Example 842, 1-(2′-chloro-4-methoxy-3-biphenylyl)-N-3-isoxazolyl-2-oxo-1,2-dihydro-6-quinolinesulfonamide], 7.14; to `COc1cc(-c2ccc(C)c(C)c2)c(F)cc1-n1c(=O)ccc2cc(S(=O)(=O)Nc3ccon3)ccc21` [Example 704, 1-(2-fluoro-5-methoxy-3′,4′-dimethyl-4-biphenylyl)-N-3-isoxazolyl-2-oxo-1,2-dihydro-6-quinolinesulfonamide], 7.80.
On the same count and under the same terms, to `COc1cc(-c2ccc(F)c(F)c2)ccc1-n1c(=O)ccc2cc(S(=O)(=O)Nc3ccon3)ccc21` [Example 1014, 1-(3′,4′-difluoro-3-methoxy-4-biphenylyl)-N-3-isoxazolyl-2-oxo-1,2-dihydro-6-quinolinesulfonamide] belongs 7.28; to `COc1cc(-c2ccc(F)c(C)c2)c(F)cc1-n1c(=O)ccc2cc(S(=O)(=O)Nc3ncc(F)cn3)ccc21` [Example 942, 1-(2,4′-difluoro-5-methoxy-3′-methyl-4-biphenylyl)-N-(5-fluoro-2-pyrimidinyl)-2-oxo-1,2-dihydro-6-quinolinesulfonamide], 7.51.
In the case of `COc1cc(-c2ccccc2C(F)(F)F)ccc1-n1c(=O)ccc2cc(S(=O)(=O)Nc3ccon3)ccc21` [Example 1052, N-3-isoxazolyl-1-(3-methoxy-2′-(trifluoromethyl)-4-biphenylyl)-2-oxo-1,2-dihydro-6-quinolinesulfonamide], the pIC50 under setting [1] is 7.27.
The compound `COc1cc(-c2cccc(OC)c2Cl)c(F)cc1-n1c(=O)ccc2cc(S(=O)(=O)Nc3ccon3)ccc21` [Example 731, 1-(2′-chloro-2-fluoro-3′,5-dimethoxy-4-biphenylyl)-N-3-isoxazolyl-2-oxo-1,2-dihydro-6-quinolinesulfonamide] gave a negative-log IC50 (pIC50) (in-vitro Nav 1.7 PX data) of 6.85.
On to `COc1cc(Cl)c(-c2cc(F)cc(Cl)c2)cc1-n1c(=O)ccc2cc(S(=O)(=O)Nc3ccon3)ccc21` (atropisomer, axis not shown; (M)) [Example 615, (M)-1-(3′,6-dichloro-5′-fluoro-4-methoxy-3-biphenylyl)-N-3-isoxazolyl-2-oxo-1,2-dihydro-6-quinolinesulfonamide], for which the pIC50 (in-vitro Nav 1.7 PX data) was 4.97.
Still for that read-out and setting: in the case of `COc1cc(Cl)cc(-c2cc(OC)cc(-c3cc(OC)c(-n4c(=O)ccc5cc(S(=O)(=O)Nc6ccon6)ccc54)cc3F)c2)c1` [Example 723, 1-(3″-chloro-2-fluoro-5,5′,5″-trimethoxy-1,1′:3′,1″-terphenyl-4-yl)-N-3-isoxazolyl-2-oxo-1,2-dihydro-6-quinolinesulfonamide] it was 8.15.
`COc1ccc(-c2cc(F)cc(Cl)c2)cc1-n1c(=O)ccc2cc(S(=O)(=O)Nc3cccnn3)ccc21` [Example 861, 1-(3′-chloro-5′-fluoro-4-methoxy-3-biphenylyl)-2-oxo-N-3-pyridazinyl-1,2-dihydro-6-quinolinesulfonamide] had a pIC50 (in-vitro Nav 1.7 PX data) of 7.42.
